According to patent publication US10736883B2, “Triazole furan compounds as agonists of the APJ receptor” (AMGEN INC., priority 2016, dated 2020):

The compounds below were run against APJ receptor (Homo sapiens (Human), UniProt P35414) (assay: [35S]GTPγS binding assay on membranes from CHO cells stably expressing human APJ receptor). Settings: membranes of CHO cells stably expressing human APJ receptor, means of several independent experiments, read-out: Activity hAPJ SPA EC50 IP.
Type: biochemical
How it was run: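 EC50 values were obtained by non-linear regression of [35S]GTPγS (0.2 nM) binding after 90 min at RT, with nonspecific binding defined by 100 μM GTPγS. Reactions used human APJ–expressing CHO cell membranes on WGA PS beads in HEPES pH 7.5 buffer with 5 mM MgCl2, 200 mM NaCl, 3 μM GDP and 0.1% BSA.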

Chain of APJ receptor (P35414 whole entry): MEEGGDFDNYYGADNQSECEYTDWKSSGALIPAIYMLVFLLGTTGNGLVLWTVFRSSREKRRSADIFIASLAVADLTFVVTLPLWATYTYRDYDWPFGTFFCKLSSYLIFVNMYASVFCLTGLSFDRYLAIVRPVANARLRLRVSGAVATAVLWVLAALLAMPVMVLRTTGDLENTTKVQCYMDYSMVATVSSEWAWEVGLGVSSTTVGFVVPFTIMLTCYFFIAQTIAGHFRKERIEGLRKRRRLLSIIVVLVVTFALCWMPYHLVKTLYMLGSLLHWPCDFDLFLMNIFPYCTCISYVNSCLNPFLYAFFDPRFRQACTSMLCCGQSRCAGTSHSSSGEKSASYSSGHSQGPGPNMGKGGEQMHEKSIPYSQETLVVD

Compound | EC50
COc1cccc(OC)c1-n1c(NS(=O)(=O)[C@@H](C)[C@H](C)c2ncc(C)cn2)nnc1-c1ccc(C)o1 [Example 262.0, (2S,3R)-N-(4-(2,6-dimethoxyphenyl)-5-(5-methylfuran-2-yl)-4H-1,2,4-triazol-3-yl)-3-(5-methylpyrimidin-2-yl)butane-2-sulfonamide] | 0.07 nM
C[C@@H](Cc1ncc(F)cn1)S(=O)(=O)Nc1nnc(-c2ccco2)n1-c1ccccc1C(F)(F)F [Example 318.0, (2S)-1-(5-Fluoro-2-pyrimidinyl)-N-(5-(2-furanyl)-4-(2-(trifluoromethyl)phenyl)-4H-1,2,4-triazol-3-yl)-2-propanesulfonamide and (2S)-1-(5-fluoro-2-pyrimidinyl)-N-(5-(2-furanyl)-4-(2-(trifluoromethyl)phenyl)-4H-1,2,4-triazol-3-yl)-2-propanesulfonamide] | 420 nM
COc1cccc(OC)c1-n1c(NS(=O)(=O)[C@H]2C[C@@H](O)CN(c3cncc(C#N)c3)C2)nnc1-c1ccc(C)o1 [Example 334.0, (3S,5R)-1-(5-Cyanopyridin-3-yl)-N-(4-(2,6-dimethoxyphenyl)-5-(5-methylfuran-2-yl)-4H-1,2,4-triazol-3-yl)-5-hydroxypiperidine-3-sulfonamide and (3S,5R)-1-(5-cyanopyridin-3-yl)-N-(4-(2,6-dimethoxyphenyl)-5-(5-methylfuran-2-yl)-4H-1,2,4-triazol-3-yl)-5-hydroxypiperidine-3-sulfonamide] | 0.47 nM
COc1ncnc(OC)c1-n1c(NS(=O)(=O)[C@@H](C)[C@H](C)c2ncc(Cl)cn2)nnc1-c1ccc(C)o1 [Example 383.0, (2S,3R)-3-(5-Chloropyrimidin-2-yl)-N-(4-(4,6-dimethoxypyrimidin-5-yl)-5-(5-methylfuran-2-yl)-4H-1,2,4-triazol-3-yl)butane-2-sulfonamide] | 0.06 nM
COc1ncnc(OC)c1-n1c(NS(=O)(=O)[C@@H](C)[C@H](OC)c2ncc(Cl)cn2)nnc1-c1ccc(C)o1 [Example 384.0, (1R,2S)-1-(5-chloro-2-pyrimidinyl)-N-(4-(4,6-dimethoxy-5-pyrimidinyl)-5-(5-methyl-2-furanyl)-4H-1,2,4-triazol-3-yl)-1-methoxy-2-propanesulfonamide] | 0.15 nM
COCC1(n2c(NS(=O)(=O)[C@@H](C)[C@H](OC)c3ncc(Cl)cn3)nnc2-c2ccc(C)o2)CC1 [Example 385.0, (1R,2S)-1-(5-chloro-2-pyrimidinyl)-1-methoxy-N-(4-(1-(methoxymethyl)cyclopropyl)-5-(5-methyl-2-furanyl)-4H-1,2,4-triazol-3-yl)-2-propanesulfonamide] | 0.38 nM
COCCn1c(NS(=O)(=O)[C@@H](C)[C@H](OC)c2ncc(Cl)cn2)nnc1-c1ccc(C)o1 [Example 386.0, (1R,2S)-1-(5-chloropyrimidin-2-yl)-1-methoxy-N-(4-(2-methoxyethyl)-5-(5-methylfuran-2-yl)-4H-1,2,4-triazol-3-yl)propane-2-sulfonamide] | 37 nM
COCC(COC)n1c(NS(=O)(=O)[C@@H](C)[C@H](OC)c2ncc(Cl)cn2)nnc1-c1ccc(C)o1 [Example 387.0, (1R,2S)-1-(5-chloro-2-pyrimidinyl)-N-(4-(1,3-dimethoxy-2-propanyl)-5-(5-methyl-2-furanyl)-4H-1,2,4-triazol-3-yl)-1-methoxy-2-propanesulfonamide] | 2.1 nM
CO[C@H](c1ncc(Cl)cn1)[C@H](C)S(=O)(=O)Nc1nnc(-c2ccc(C)o2)n1C(C)C [Example 388.0, (1R,2S)-1-(5-chloropyrimidin-2-yl)-N-(4-isopropyl-5-(5-methylfuran-2-yl)-4H-1,2,4-triazol-3-yl)-1-methoxypropane-2-sulfonamide] | 37 nM
CO[C@H](c1ncc(Cl)cn1)[C@H](C)S(=O)(=O)Nc1nnc(-c2ccc(C)o2)n1[C@H]1CCCOC1 [Example 390.0, (1R,2S)-1-(5-chloropyrimidin-2-yl)-1-methoxy-N-(5-(5-methylfuran-2-yl)-4-((S)-tetrahydro-2H-pyran-3-yl)-4H-1,2,4-triazol-3-yl)propane-2-sulfonamide] | 13 nM
CO[C@H](c1ncc(Cl)cn1)[C@H](C)S(=O)(=O)Nc1nnc(-c2ccc(C)o2)n1[C@@H]1CCCOC1 [Example 391.0, (1R,2S)-1-(5-chloropyrimidin-2-yl)-1-methoxy-N-(5-(5-methylfuran-2-yl)-4-((R)-tetrahydro-2H-pyran-3-yl)-4H-1,2,4-triazol-3-yl)propane-2-sulfonamide] | 8.4 nM
COCC(COC)n1c(NS(=O)(=O)[C@@H](C)[C@@H](OC(C)C)c2ncc(Cl)cn2)nnc1-c1ccc(C)o1 [Example 392.0, (1S,2S)-1-(5-chloro-2-pyrimidinyl)-N-(4-(1,3-dimethoxy-2-propanyl)-5-(5-methyl-2-furanyl)-4H-1,2,4-triazol-3-yl)-1-(2-propanyloxy)-2-propanesulfonamide] | 0.55 nM
COc1ncnc(OC)c1-n1c(NS(=O)(=O)[C@@H](C)[C@H](C)c2ncc(F)cn2)nnc1-c1ccc(C)o1 [Example 393.0, (2S,3R)-N-(4-(4,6-dimethoxy-5-pyrimidinyl)-5-(5-methyl-2-furanyl)-4H-1,2,4-triazol-3-yl)-3-(5-fluoro-2-pyrimidinyl)-2-butanesulfonamide] | 0.28 nM
COc1ncnc(OC)c1-n1c(NS(=O)(=O)[C@@H](C)[C@H](C)c2ncc(F)cn2)nnc1-c1ccc(Br)o1 [Example 394.0, (2S,3R)-N-(5-(5-bromo-2-furanyl)-4-(4,6-dimethoxy-5-pyrimidinyl)-4H-1,2,4-triazol-3-yl)-3-(5-fluoro-2-pyrimidinyl)-2-butanesulfonamide] | 0.31 nM
[2H]C([2H])([2H])c1ccc(-c2nnc(NS(=O)(=O)[C@@H](C)[C@H](C)c3ncc(F)cn3)n2-c2c(OC)ncnc2OC)o1 [Example 395.0, (2S,3R)—N-(4-(4,6-Dimethoxy-5-pyrimidinyl)-5-(5-trideuteromethyl-2-furanyl)-4H-1,2,4-triazol-3-yl)-3-(5-fluoro-2-pyrimidinyl)-2-butanesulfonamide] | 0.26 nM
COc1ncnc(OC)c1-n1c(NS(=O)(=O)[C@@H](C)[C@H](C)c2ncc(C#N)cn2)nnc1-c1ccc(C)o1 [Example 397.0, (2S,3R)-3-(5-Cyano-2-pyrimidinyl)-N-(4-(4,6-dimethoxy-5-pyrimidinyl)-5-(5-methyl-2-furanyl)-4H-1,2,4-triazol-3-yl)-2-butanesulfonamide] | 0.51 nM
COC[C@H](C)n1c(NS(=O)(=O)[C@@H](C)[C@H](C)c2ncc(Cl)cn2)nnc1-c1ccc(C)o1 [Example 398.0, (2S,3R)-3-(5-chloro-2-pyrimidinyl)-N-(4-((2S)-1-methoxy-2-propanyl)-5-(5-methyl-2-furanyl)-4H-1,2,4-triazol-3-yl)-2-butanesulfonamide] | 10 nM
COc1ncnc(OC)c1-n1c(NS(=O)(=O)[C@@H](C)[C@H](C)c2ccc(Cl)cn2)nnc1-c1ccc(C)o1 [Example 400.0, (2S,3R)-3-(5-chloro-2-pyridinyl)-N-(4-(4,6-dimethoxy-5-pyrimidinyl)-5-(5-methyl-2-furanyl)-4H-1,2,4-triazol-3-yl)-2-butanesulfonamide] | 0.1 nM
COc1ncnc(OC)c1-n1c(NS(=O)(=O)[C@@H](C)[C@@H](OC(C)C)c2ncc(C)cn2)nnc1-c1ccc(C)o1 [Example 401.0, (1S,2S)-N-(4-(4,6-dimethoxypyrimidin-5-yl)-5-(5-methylfuran-2-yl)-4H-1,2,4-triazol-3-yl)-1-isopropoxy-1-(5-methylpyrimidin-2-yl)propane-2-sulfonamide] | 0.53 nM
COc1cccc(OC)c1-n1c(NS(=O)(=O)c2cccc(CO)c2)nnc1-c1ccc(C)o1 [Example 409.0, N-(4-(2,6-dimethoxyphenyl)-5-(5-methyl-2-furanyl)-4H-1,2,4-triazol-3-yl)-3-(hydroxymethyl)benzenesulfonamide] | 43 nM
(1R,2R)-N-(4-(2,6-dimethoxyphenyl)-5-(5-methyl-2-furanyl)-4H-1,2,4-triazol-3-yl)-1-hydroxy-1-(5-methyl-2-pyrimidinyl)-2-propanesulfonamide or (1S,2S)-N-(4-(2,6-dimethoxyphenyl)-5-(5-methyl-2-furanyl)-4H-1,2,4-triazol-3-yl)-1-hydroxy-1-(5-methyl-2-pyrimidinyl)-2-propanesulfonamide [Example 244.0] | 0.94 nM
(1R,2R)-N-(4-(2,6-dimethoxyphenyl)-5-(5-methyl-2-furanyl)-4H-1,2,4-triazol-3-yl)-1-methoxy-1-(5-methyl-2-pyrimidinyl)-2-propanesulfonamide or (1S,2S)-N-(4-(2,6-dimethoxyphenyl)-5-(5-methyl-2-furanyl)-4H-1,2,4-triazol-3-yl)-1-methoxy-1-(5-methyl-2-pyrimidinyl)-2-propanesulfonamide [Example 226.0] | 0.35 nM
(1R,2R)-N-(4-(2,6-dimethoxyphenyl)-5-(5-methyl-2-furanyl)-4H-1,2,4-triazol-3-yl)-1-methoxy-1-(5-methyl-2-pyrimidinyl)-2-propanesulfonamide or (1S,2S)-N-(4-(2,6-dimethoxyphenyl)-5-(5-methyl-2-furanyl)-4H-1,2,4-triazol-3-yl)-1-methoxy-1-(5-methyl-2-pyrimidinyl)-2-propanesulfonamide [Example 250.0] | 3.3 nM
(1R,2S)-1-(5-chloro-2-pyrimidinyl)-N-(4-(2,6-dimethoxyphenyl)-5-(5-methyl-2-furanyl)-4H-1,2,4-triazol-3-yl)-1-hydroxy-2-propanesulfonamide or (1S,2R)-1-(5-chloro-2-pyrimidinyl)-N-(4-(2,6-dimethoxyphenyl)-5-(5-methyl-2-furanyl)-4H-1,2,4-triazol-3-yl)-1-hydroxy-2-propanesulfonamide [Example 212.0] | 0.074 nM
